Columns and labels:
[1] = xn = mol fraction of the nth substance listed; conditions: Liquid, isochoric method, x1 = 0.1965
[2] = Liquid, Capillary tube (Ostwald / Ubbelohde) method

CCCCCCCC [octane] + O=C=O
mass density [kg/m3], [1]
Conditions	313.05 K	322.96 K	332.84 K
8000 kPa	740.9	–	–
9000 kPa	750.1	716.1	–
10000 kPa	758.3	724.1	–
11000 kPa	765.4	731.9	–
12000 kPa	771.9	739.1	–
13000 kPa	777.9	745.8	–
14000 kPa	783.5	752	–
15000 kPa	788.7	757.7	–
16000 kPa	793.6	763.1	732.9
17000 kPa	798.2	768.2	739.2
18000 kPa	802.7	772.9	745.1
19000 kPa	–	777.5	750.6
19170 kPa	807	–	–
20000 kPa	811.1	781.8	755.8
21000 kPa	815	786	–
21020 kPa	–	–	760.8
22000 kPa	818.7	789.9	–
22020 kPa	–	–	765.4
22960 kPa	–	793.6	–
22980 kPa	–	–	769.7
22990 kPa	822.2	–	–
23960 kPa	–	797.3	–
23990 kPa	–	–	773.9
24000 kPa	825.6	–	–
24550 kPa	827.5	–	–
24790 kPa	–	–	777.1

CCCCCCCCCCO [decan-1-ol]
[2]
Conditions	viscosity [mPa·s]
298.15 K, 2000 kPa	11.25
298.15 K, 3990 kPa	11.54
298.15 K, 6010 kPa	11.79
298.15 K, 8010 kPa	12.05
298.15 K, 10010 kPa	12.35
298.15 K, 13010 kPa	12.74
298.15 K, 16010 kPa	13.16
298.15 K, 19010 kPa	13.57
298.15 K, 22010 kPa	14.01
298.15 K, 25000 kPa	14.46
298.15 K, 28000 kPa	14.89
298.15 K, 29990 kPa	15.19
303.15 K, 1990 kPa	8.895
303.15 K, 4000 kPa	9.117
303.15 K, 5980 kPa	9.337
303.15 K, 8010 kPa	9.562
303.15 K, 10020 kPa	9.784
303.15 K, 12980 kPa	10.11
303.15 K, 15970 kPa	10.44
303.15 K, 19020 kPa	10.78
303.15 K, 22000 kPa	11.11
303.15 K, 24980 kPa	11.44
303.15 K, 27980 kPa	11.77
303.15 K, 30010 kPa	12
313.15 K, 2030 kPa	6.219
313.15 K, 4020 kPa	6.374
313.15 K, 6000 kPa	6.526
313.15 K, 7980 kPa	6.68
313.15 K, 9980 kPa	6.835
313.15 K, 12990 kPa	7.068
313.15 K, 15990 kPa	7.299
313.15 K, 18990 kPa	7.532
313.15 K, 22010 kPa	7.766
313.15 K, 25020 kPa	7.999
313.15 K, 28020 kPa	8.231
313.15 K, 29980 kPa	8.382
323.15 K, 2000 kPa	4.735
323.15 K, 4010 kPa	4.857
323.15 K, 6010 kPa	4.97
323.15 K, 8010 kPa	5.091
323.15 K, 9990 kPa	5.202
323.15 K, 13010 kPa	5.369
323.15 K, 16010 kPa	5.54
323.15 K, 19020 kPa	5.726
323.15 K, 22020 kPa	5.892
323.15 K, 25010 kPa	6.072
323.15 K, 28000 kPa	6.247
323.15 K, 30010 kPa	6.373

— the NIST ThermoML archive (doi:10.1021/acs.jced.8b01027)
